Structures can show the parent of a compound that is named as a salt. Where two headings read alike, the source gives them in different places.
How the values were obtained:
[1] = test system: MLKL phosphorylation in HT29-L23 human colorectal adenocarcinoma cells; experiment: MLKL Phosphorylation High-Content Assay; type: cell-based; settings: necroptosis induced with TNFα, SMAC mimetic and Z-VAD, 6 h, read-out: pMLKL (IC50)
In short: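 HT29-L23 cells pretreated 30 min at 37 °C with compound (6.25 to 0.106 μM final), then necroptosis induced with TNFα 35 ng/mL, SMAC mimetic 700 nM and Z-VAD 140 nM for 6 h. Fixed cells immunostained for MLKL pS358 and imaged; IC50 and Ymax from 4-parameter logistic fit.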

[2] = target: His-GST-TVMV-hRIPK1(1-324) (Homo sapiens (Human), UniProt Q13546); experiment: RIPK1 HTRF Binding Assay; settings: HTRF binding, 1 h at rt; read-out: RIPK1 (IC50)
In short: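 HTRF probe-displacement binding: 1 nM His-GST-TVMV-hRIPK1(1-324) (baculovirus construct), 90.6 nM probe, 0.2 nM anti-GST-Tb in 20 mM HEPES, 10 mM MgCl2, 0.015% Brij-35, 4 mM DTT, 0.05 mg/mL BSA. Incubated 1 h at rt; FRET 520/495 nm ratio, inhibition relative to DMSO-only wells.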

Sequence of His-GST-TVMV-hRIPK1(1-324) (Q13546 1-324): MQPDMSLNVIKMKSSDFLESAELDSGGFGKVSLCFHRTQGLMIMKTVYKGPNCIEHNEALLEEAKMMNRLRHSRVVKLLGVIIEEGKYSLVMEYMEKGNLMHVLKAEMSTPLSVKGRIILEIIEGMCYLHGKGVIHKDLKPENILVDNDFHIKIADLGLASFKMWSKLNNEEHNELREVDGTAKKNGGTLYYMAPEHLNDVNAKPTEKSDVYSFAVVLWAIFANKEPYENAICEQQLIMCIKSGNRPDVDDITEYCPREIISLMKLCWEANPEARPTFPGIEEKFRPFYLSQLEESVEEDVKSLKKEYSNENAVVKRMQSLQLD

| Compound | IC50 [1] [nM] | IC50 [2] [nM] | IC50 ([1]; Homo sapiens) [nM] |
| --- | --- | --- | --- |
| COc1ncc(-c2ccc3nc(NC(=O)C(C)C)cn3n2)cc1C(=O)NCc1ccc(F)c(F)c1OCC1CC1 [Example 264, N-{[2-(cyclopropylmethoxy)-3,4-difluorophenyl]methyl}-2-methoxy-5-[2-(2-methylpropanamido)imidazo[1,2-b]pyridazin-6-yl]pyridine-3-carboxamide, TFA] | 240 | 55 | – |
| CC(=O)Nc1cn2nc(-c3cnc(Cl)c(C(=O)NC(C)c4ccccc4OC(F)(F)F)c3)ccc2n1 (stereo not shown) [Example 268, 2-chloro-5-{2-acetamidoimidazo[1,2-b]pyridazin-6-yl}-N-{1-[2-(trifluoromethoxy)phenyl]ethyl}pyridine-3-carboxamide] | – | 46 | 73 |
| COc1ncc(-c2ccc3nc(NC(C)=O)c(C)n3n2)cc1C(=O)NCc1ccccc1OC(F)(F)F [Example 258, 5-{2-acetamido-3-methylimidazo[1,2-b]pyridazin-6-yl}-2-methoxy-N-{[2-(trifluoromethoxy)phenyl]methyl}pyridine-3-carboxamide, TFA] | – | 72 | 57 |
| CC(=O)Nc1cn2nc(-c3cnc(Cl)c(C(=O)NCc4cc(OC(F)(F)F)ccc4F)c3)ccc2n1 [Example 12, 2-chloro-5-{2-acetamidoimidazo[1,2-b]pyridazin-6-yl}-N-{[2-fluoro-5-(trifluoromethoxy)phenyl]methyl}pyridine-3-carboxamide] | – | 5 | 27 |
| Cc1nc(C)c(-c2ccc3nc(NC(=O)CO)cn3n2)cc1C(=O)NCc1cc(C(F)(F)F)ccc1F [Example 94, N-{[2-fluoro-5-(trifluoromethyl)phenyl]methyl}-5-[2-(2-hydroxyacet-amido)imidazo[1,2-b]pyridazin-6-yl]-2,6-dimethylpyridine-3-carboxamide] | – | 77 | 87 |
| CC(=O)Nc1cn2nc(-c3cc(C(=O)N[C@H](C)c4cc(OC(F)(F)F)ccc4F)c(Cl)cc3F)ccc2n1 [Example 392, 2-chloro-5-{2-acetamidoimidazo [1,2-b]pyridazin-6-yl}-4-fluoro-N-[(1R)-1-[2-fluoro-5-(trifluoromethoxy)phenyl]ethyl] benzamide] | – | 36 | 72 |
| CC(=O)Nc1cn2nc(-c3cccc(C(=O)NCc4cc(OC(F)(F)F)ccc4F)c3F)ccc2n1 [Example 424, 3-{2-acetamidoimidazo [1,2-b]pyridazin-6-yl}-2-fluoro-N-{[2-fluoro-5-(trifluoromethoxy)phenyl]methyl} benzamide] | – | 2 | 3 |
| COc1nc(C)c(-c2ccc3nc(NC(C)=O)cn3n2)cc1C(=O)NC(C)c1cc(C(F)(F)F)ccc1F (stereo not shown) [Example 276, 5-{2-acetamidoimidazo[1,2-b]pyridazin-6-yl}-N-{1-[2-fluoro-5-(trifluoromethyl)phenyl]ethyl}-2-methoxy-6-methylpyridine-3-carboxamide] | 39 | 28 | – |
| CC(=O)Nc1cn2nc(-c3cc(C(=O)NCc4cc(F)cc(F)c4OC4COC4)c(C)nc3C)ccc2n1 [Example 77, N-{[3,5-difluoro-2-(oxetan-3-yloxy)phenyl]methyl}-5-{2-acetamidoimidazo[1,2-b]pyridazin-6-yl}-2,6-dimethylpyridine-3-carboxamide] | – | 17 | 265 |
| CC(=O)Nc1cn2nc(-c3cc(C(=O)NCC[C@@H](O)c4ccc(Cl)cc4)c(C)cc3C)ccc2n1 [Example 382, N-[(3R)-3-(4-chlorophenyl)-3-hydroxypropyl]-5-{2-acetamidoimidazo [1,2-b]pyridazin-6-yl}-2,4-dimethylbenzamide] | – | 4 | 2 |
| CC(=O)Nc1cn2nc(-c3cnc(C)c(C(=O)NCc4ccccc4OC4CCOC4)c3)ccc2n1 (stereo not shown) [Example 224, 5-{2-acetamidoimidazo[1,2-b]pyridazin-6-yl}-2-methyl-N-{[2-(oxolan-3-yloxy)phenyl]methyl}pyridine-3-carboxamide] | – | 157 | 334 |
| COc1ncc(-c2ccc3nc(NC(=O)C(C)(C)O)cn3n2)cc1C(=O)NCc1cc(OC(F)(F)F)ccc1F [Example 36, N-{[2-fluoro-5-(trifluoromethoxy)phenyl]methyl}-5-[2-(2-hydroxy-2-methylpropanamido)imidazo[1,2-b]pyridazin-6-yl]-2-methoxypyridine-3-carboxamide] | – | 48 | 92 |
| [2H]C([2H])([2H])[C@@H](NC(=O)c1cc(-c2ccc3nc(NC(C)=O)cn3n2)c(C)nc1C)c1cc(C(F)(F)F)ccc1F [Example 67, 5-{2-acetamidoimidazo[1,2-b]pyridazin-6-yl}-N-[(1R)-1-[2-fluoro-5-(trifluoromethyl)phenyl](2,2,2-deutero)ethyl]-2,6-dimethylpyridine-3-carboxamide] | – | 14 | 14 |
| CC(=O)Nc1cn2nc(-c3ccc(C)c(C(=O)NCC(O)COc4ccccc4)c3)ccc2n1 (stereo not shown) [Example 400, 5-{2-acetamidoimidazo [1,2-b]pyridazin-6-yl}-N-(2-hydroxy-3-phenoxypropyl)-2-methylbenzamide] | – | 11 | 11 |
| COc1ncc(-c2ccc3nc(NC(C)=O)cn3n2)cc1C(=O)NCc1ccc(F)c(F)c1OC(C)C1CC1 (stereo not shown) [Example 132, N-{[2-(1-cyclopropylethoxy)-3,4-difluorophenyl]methyl}-5-{2-acetamidoimidazo[1,2-b]pyridazin-6-yl}-2-methoxypyridine-3-carboxamide] | 64 | 10 | – |
| [2H]C([2H])(NC(=O)c1cc(-c2ccc3nc(NC(=O)CO)cn3n2)cnc1OC)c1cc(F)cc(F)c1OC1CCOCC1 [Example 2, N-{[3,5-difluoro-2-(oxan-4-yloxy)phenyl](D2)methyl}-5-[2-(2-hydroxyacetamido)imidazo[1,2-b]pyridazin-6-yl]-2-methoxypyridine-3-carboxamide] | – | 2 | 4 |
| CC(=O)Nc1cn2nc(-c3ccc(C)c(C(=O)NCc4cc(F)ccc4-c4cnn(C5CC5)c4)c3F)ccc2n1 [Example 410, N-{[2-(1-cyclopropyl-1H-pyrazol-4-yl)-5-fluorophenyl]methyl}-3-{2-acetamidoimidazo [1,2-b]pyridazin-6-yl}-2-fluoro-6-methylbenzamide] | – | 39 | 77 |
| COc1ccc(F)c(CNC(=O)c2cc(-c3ccc4nc(NC(C)=O)cn4n3)c(C)nc2C)c1 [Example 37, 5-(2-acetamidoimidazo[1,2-b]pyridazin-6-yl)-N-(2-fluoro-5-methoxybenzyl)-2,6-dimethylnicotinamide] | – | 67 | 208 |
| COc1cc(F)c(-c2ccc3nc(NC(C)=O)cn3n2)cc1C(=O)NCc1c(F)cccc1OC [Example 420, 5-{2-acetamidoimidazo [1,2-b]pyridazin-6-yl}-4-fluoro-N-[(2-fluoro-6-methoxyphenyl)methyl]-2-methoxybenzamide] | – | 90 | 77 |
| COc1ncc(-c2ccc3nc(NC(C)=O)cn3n2)cc1C(=O)NC(C)c1cc(F)cc(F)c1OCC1CC1 (stereo not shown) [Example 130, N-{1-[2-(cyclopropylmethoxy)-3,5-difluorophenyl]ethyl}-5-{2-acetamidoimidazo[1,2-b]pyridazin-6-yl}-2-methoxypyridine-3-carboxamide] | 3 | 4 | – |
| Cc1nc(C)c(-c2ccc3nc(NC(=O)CO)cn3n2)cc1C(=O)N[C@H](C)c1cc(OC(F)(F)F)ccc1F [Example 95, N-[(1R)-1-[2-fluoro-5-(trifluoromethoxy)phenyl]ethyl]-5-[2-(2-hydroxyacet-amido)imidazo[1,2-b]pyridazin-6-yl]-2,6-dimethylpyridine-3-carboxamide] | – | 30 | 68 |
| CC(=O)Nc1cn2nc(-c3cnc(C)c(C(=O)NCc4cc(C(F)(F)F)ccc4F)c3)ccc2n1 [Example 206, 5-{2-acetamidoimidazo[1,2-b]pyridazin-6-yl}-N-{[2-fluoro-5-(trifluoromethyl)phenyl]methyl}-2-methylpyridine-3-carboxamide, TFA] | – | 12 | 37 |
| COc1ncc(-c2ccc3nc(NC(C)=O)cn3n2)cc1C(=O)N[C@H](C)c1ccccc1C(F)(F)F [Example 104, 5-{2-acetamidoimidazo[1,2-b]pyridazin-6-yl}-2-methoxy-N-[(1R)-1-[2-(trifluoromethyl)phenyl]ethyl]pyridine-3-carboxamide] | – | 36 | 73 |
| CC(=O)Nc1cn2nc(-c3cc(C(=O)NCc4cc(F)ccc4OC(F)(F)F)cnc3Cl)ccc2n1 [Example 322, 6-chloro-5-{2-acetamidoimidazo[1,2-b]pyridazin-6-yl}-N-{[5-fluoro-2-(trifluoromethoxy)phenyl]methyl}pyridine-3-carboxamide] | 51 | 8 | – |
| COc1ncc(-c2ccc3nc(NC(C)=O)cn3n2)cc1C(=O)NCc1ccccc1S(=O)(=O)C1CC1 [Example 158, N-{[2-(cyclopropanesulfonyl)phenyl]methyl}-5-{2-acetamidoimidazo[1,2-b]pyridazin-6-yl}-2-methoxypyridine-3-carboxamide] | – | 31 | 336 |
| [2H]C([2H])([2H])Oc1nc(C)c(-c2ccc3nc(NC(C)=O)cn3n2)cc1C(=O)NCc1c(F)cccc1OCC(F)(F)F [Example 173, 5-{2-acetemidoimidazo[1,2-b]pyridazin-6-yl}-N-{[2-fluoro-6-(2,2,2-trifluoroethoxy)phenyl]methyl}-2-(deutero)methoxy-6-methylpyridine-3-carboxamide] | – | 3 | 2 |
